Measurements from patent US20090326035A1, “Compositions and Methods for Preventing or Reducing Postoperative Ileus and Gastric Stasis in Mammals” (priority 2006, published 2009).

System: Male Sprague Dawley rats
Experiment: Charcoal transit model of postoperative ileus (POI) after cecum manipulation
Assay type: in vivo, rat
Conditions: for Prevention of POI (in words): delivered via gel to the manipulated intestines; for % GI Transfer: 4 h after oral charcoal meal; for Dose response of the effect on POI (in words): low versus high dose gel formulations
From the text: The charcoal transit model is an acceptable and established model to study the effects of abdominal surgery on intestinal motility. We followed the procedure as described by De Winter et al. (1997) (Reference: Effect of adrenergic and nitrergic blockade on experimental ileus in rats. British Journal of Pharmacology (1997) 120, 464-468. Benedicte Y. De Winter, Guy E. Boeckxstaens, Joris G. De Man, Tom G. Moreels, Arnold G. Herman & Paul A. Pelckmans). The model simulates the abdominal procedure in human and tests for gastric emptying and intestinal motility by the transfer of a charcoal meal fed to the animals.
Male Sprague Dawley rats, weighing 250-275 g (8 in group) were anesthetized with a xylazine/ketamine cocktail, injected IM, the abdomen was shaved and disinfected with alcohol and Betadyne. A 2.5 cm incision was made from the xyphoid process caudally. The intestinal contents was exteriorized onto wet gauze. The cecum was manipulated gently for 1 minute. The abdominal contents were replaced, the treatment was applied, and the body wall was closed with 4-0 PDS for the fascia and muscle layers. The skin was closed with wound clips. In addition, two control groups were tested as well: incision only and naïve. Treatment groups included two control groups, surgery (incision only) and naïve, and two treatment groups, a high and low dose of Diclofenac, as well as 3 wt % Na-CMC gel alone. The high and low dose of Diclofenac, as well as the 3 wt % Na-CMC gel were prepared as described above. 8 rats were included in each group with a total of 40 rats.
The rats were treated with an oral solution of charcoal (10%) in acacia gum (2%). Four hours following oral administration rats were euthanized with Euthasole. The intestines were exteriorized and the distance traveled by the charcoal meal was measured as well as the full length of the intestines (from the pylorus through the anus). Results are expressed as percent of distance traveled relative to the full length of the intestines.
Male Sprague Dawley rats, weighing 250-275 g (8 in group) were anesthetized with a xylazine/ketamine cocktail, injected IM, the abdomen was shaved and disinfected with alcohol and Betadyne. A 2.5 cm incision was made from the xyphoid process caudally. The intestinal contents was exteriorized onto wet gauze. The cecum was manipulated gently for 1 minute. The abdominal contents were replaced, the treatment was applied, and the body wall was closed with 4-0 PDS for the fascia and muscle layers. The skin was closed with wound clips. In addition, two control groups were tested as well: incision only and naïve. Treatment groups included two control groups, surgery (incision only) and naïve, and 4 treatment groups, a high and low dose of Diclofenac, a high and a low dose of Naproxen, as well as 3 wt % Na-CMC gel alone. The high and low dose of Diclofenac, as well as the 3 wt % Na-CMC gel were prepared as described above. 8 rats were included in each group with a total of 56 rats.

[1] = Example 2, both doses (0.3 and 2.0 mg) in gel, compared with non-treated and gel-alone animals
[2] = Example 2, high dose 2.0 mg in 3 wt % Na-CMC gel applied after intestinal manipulation
[3] = Example 2, low dose 0.3 mg in 3 wt % Na-CMC gel applied after intestinal manipulation

SMILES: O=C(O)Cc1ccccc1Nc1c(Cl)cccc1Cl [Diclofenac-Na, Diclofenac sodium]
- Prevention of POI (in words) (Example 1, high dose, listed as Diclofenac sodium): complete prevention
- Prevention of POI (in words) (Example 1, high dose, listed as diclofenac): completely alleviated the POI
- % GI Transfer (Example 1, listed as 'Diclofenac-Na high', dose printed 0.3 mg, in 3 wt % Na-CMC gel applied after intestinal manipulation, distance traveled relative to full intestine length): 73.58%
- % GI Transfer (Example 1, listed as 'Diclofenac-Na low', dose printed 1.0 mg, in 3 wt % Na-CMC gel applied after intestinal manipulation, distance traveled relative to full intestine length): 95.05%
- Prevention of POI (in words) (Example 1, low dose): significant prevention of POI
- Dose response of the effect on POI (in words): dose related manner

SMILES: O=C(c1ccccc1)c1ccc2n1CCC2C(=O)O (stereo not drawn) [Ketorolac]
- Alleviation of POI (in words) [1]: significant alleviation of the POI
- % GI Transfer [2]: 69.84%
- % GI Transfer [3]: 70.99%
- Dose response of the effect on POI (in words): dose response was not observed

SMILES: COc1ccc2cc([C@H](C)C(=O)O)ccc2c1 [Naproxen]
- Alleviation of POI (in words) [1]: both doses improved on the gastric emptying and intestinal transfer
- % GI Transfer [2]: 65.34%
- Alleviation of POI (in words) (Example 2, high dose (2.0 mg) in gel): not completely curative
- % GI Transfer [3]: 56.9%
- Dose response of the effect on POI (in words): dose related prevention of the POI
